Like-named read-outs stand apart in the source and are kept apart here.
How the values were obtained:
[1] = Stability of stock and working solutions at -20°C; format: physicochemical; details: 1 mg/mL in DMSO, -20°C ±5°C
Method: The stability of stock and working solutions, as well the stability of IS stock solution, following storage at -20°C ±5°C were investigated by concordance verification by comparing the stored solution against a freshly prepared one.

[2] = Stability in human K3-EDTA plasma under different test conditions; format: in vitro ADME
Method: Likewise, a wide range of long-term stability tests reflecting the sort of real-world storage issues that can occur in hospital-based clinical studies (e.g., short-term storage at -20°C before transfer to -80°C, availability of -60°C but not -80°C), was evaluated to ensure plasma samples are analyzed before degradation can occur. Therefore, the following plasma stability tests were performed: room temperature, freeze thaw (one cycle consisted of 2 hours at room temperature followed by freezing for at least 12 hours at -80°C ± 10°C) and long-term (at -20°C ± 5°C, -60°C ± 10°C and -80°C ± 10°C). For each stability test, two concentrations (LQC and HQC) and six replicates per level were analyzed. For acceptance criteria, the precision (%CV) was ≤15% and the bias when compared with the nominal concentration was ±15%. […]

[3] = format: in vitro ADME; details: human, 120 min, 10 ng/mL
Method: To ensure correct sample collection during the clinical trial procedures, whole-blood (using K3-EDTA as anticoagulant) stability was studied by spiking the blood (lurbinectedin at 20 ng/mL and M4 and M6 at 10 ng/mL). Aliquots of the whole blood were then centrifuged at 4°C for 0, 30, 60, 90 and 120 minutes post equilibration (15 minutes at 37°C) to produce plasma, which was then frozen prior to analysis. This was performed at room temperature (and in an ice bath for lurbinectedin). The derived plasma samples were analyzed in triplicate, and the criterion for acceptance was defined as having a response within ±15% of the zero-minute sample.

[4] = parameters: method as in PMID 35042701; details: patients, radio-labeled lurbinectedin mass balance study; cited from earlier work
[5] = parameters: method as in PMID 35042701; details: NHPs; cited from earlier work
[6] = Chemical stability of M4 reference standard on isolation; format: physicochemical; details: column chromatography on silica gel or reversed-phase chromatography
Method: The chemical synthesis of the reference standard for M4 was not feasible. […] Therefore, M4 and M4-d4 solutions were biosynthetically obtained following the incubation of lurbinectedin and PM040038, respectively, in liver microsomes according to a three-step method described elsewhere.

[7] = 5 freeze-thaw cycles, nom. conc. 1.5 ng/mL
[8] = 5 freeze-thaw cycles, nom. conc. 16 ng/mL
[9] = -80°C ±10°C, 237 days, nom. conc. 1.5 ng/mL
[10] = -80°C ±10°C, 237 days, nom. conc. 16 ng/mL
[11] = Ambient, 21.8 hours, nom. conc. 1.5 ng/mL
[12] = Ambient, 21.8 hours, nom. conc. 16 ng/mL
[13] = -80°C ±10°C, 197 days, nom. conc. 1.5 ng/mL
[14] = -80°C ±10°C, 197 days, nom. conc. 16 ng/mL
[15] = Ambient, 6 hours, nom. conc. 1.5 ng/mL
[16] = Ambient, 6 hours, nom. conc. 16 ng/mL

| Structure (SMILES) | stability of stock solution in DMSO [1] [days] | Bias [2, 7] [%] | Measured conc. [2, 7] [ng/mL] | Bias [2, 8] [%] | Measured conc. [2, 8] [ng/mL] | difference in concentration from time zero to 120 minutes [3] [%] | circulating metabolite in plasma, % compared with parent compound [4] [%] | circulating metabolite in plasma, % compared with parent compound [5] [%] | further results |
| --- | --- | --- | --- | --- | --- | --- | --- | --- | --- |
| [2H]C1([2H])N[C@]2(CS[C@@H]3c4c(OC(C)=O)c(C)c5c(c4[C@H](COC2=O)N2[C@@H]3[C@@H]3N[C@@H](Cc4cc(C)c(OC)c(O)c43)[C@@H]2O)OCO5)c2[nH]c3ccc(OC)cc3c2C1([2H])[2H] [PM190539, N-Desmethyl-lurbinectedin-d4] | ≥ 28 |  |  |  |  |  |  |  |  |
| COc1ccc2[nH]c3c(c2c1)CCN[C@]31CS[C@@H]2c3c(OC(C)=O)c(C)c4c(c3[C@H](COC1=O)N1[C@@H]2[C@@H]2N[C@@H](Cc3cc(C)c(OC)c(O)c32)[C@@H]1O)OCO4 [M6, N-desmethyl-lurbinectedin] | ≥ 28 | 13 | 1.69 | 14 | 18.2 | -8 | 10.4 | 0.4 | Bias [2, 9]: 13%; Measured conc. [2, 9]: 1.70 ng/mL; Bias [2, 10]: 15%; Measured conc. [2, 10]: 18.4 ng/mL; Bias [2, 11]: 5%; Measured conc. [2, 11]: 1.58 ng/mL; Bias [2, 12]: 5%; Measured conc. [2, 12]: 16.8 ng/mL |
| [2H]C1([2H])N[C@]2(CS[C@@H]3c4c(OC(C)=O)c(C)c5c(c4[C@H](COC2=O)N2[C@@H]3[C@H]3c4c(cc(C)c(OC)c4O)C[C@@H]([C@@H]2O)N3C)OCO5)c2[nH]c3ccc(OC)cc3c2C1([2H])[2H] [PM040038] | ≥ 36 |  |  |  |  |  |  |  |  |
| COc1ccc2[nH]c3c(c2c1)CCN[C@]31CS[C@@H]2c3c(OC(C)=O)c(C)c(O)c(O)c3[C@H](COC1=O)N1[C@@H]2[C@H]2c3c(cc(C)c(OC)c3O)C[C@@H]([C@@H]1O)N2C [M4, 1′,3′-dihydroxy-lurbinectedin] |  | 5 | 1.58 | -3 | 15.6 | -3 | 14.3 | 0.9 | Bias [2, 13]: 3%; Measured conc. [2, 13]: 1.54 ng/mL; Bias [2, 14]: -1%; Measured conc. [2, 14]: 15.8 ng/mL; Bias [2, 15]: -7%; Measured conc. [2, 15]: 1.40 ng/mL; Bias [2, 16]: -14%; Measured conc. [2, 16]: 13.7 ng/mL; stability on isolation by conventional methods [6]: too unstable to be isolated |

From publication PMC10062662, “Quantitative determination of lurbinectedin, its unbound fraction and its metabolites in human plasma utilizing ultra-performance LC–MS/MS” (PLOS ONE, 2023)
